Measured values: patent publication US5663331A, “Cephalosporin compounds” (Il-Dong Pharm. Co., Ltd., priority 1992, dated 1997)
In brackets after ≈: the same amount, converted by molar mass.

How the values were obtained:
Format in all cases: cell-based
[1] = tested on: Bacillus subtilis ATCC 6633; experiment: MIC, two-fold dilution method, Bacillus subtilis ATCC 6633; conditions: 10^6 CFU per ml, 37° C., 18 to 20 hours; for MIC: ATCC6633, Muller Hinton Broth, read-out: Antibacterial Activity (MIC); for Antibacterial Activity (MIC): Muller Hinton Broth
Outline: (§1)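 Two-fold serial dilutions of compound were prepared in Mueller Hinton Broth and inoculated with the standard strain at 10^6 CFU per ml. Cultures were incubated at 37° C. for 18 to 20 hours, and the MIC was taken as the minimal inhibitory concentration.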

[2] = tested on: Staphylococcus aureus ATCC 65389; experiment: MIC, two-fold dilution method, Staphylococcus aureus ATCC 65389; conditions: 10^6 CFU per ml, 37° C., 18 to 20 hours; for MIC: ATCC65389, Muller Hinton Broth, read-out: Antibacterial Activity (MIC); for Antibacterial Activity (MIC): Muller Hinton Broth
Outline: as §1

[3] = tested on: Staphylococcus epidermidis ATCC 12228; experiment: MIC, two-fold dilution method, Staphylococcus epidermidis ATCC 12228; conditions: 10^6 CFU per ml, 37° C., 18 to 20 hours; for MIC: ATCC12228, Muller Hinton Broth, read-out: Antibacterial Activity (MIC); for Antibacterial Activity (MIC): Muller Hinton Broth
Outline: as §1

[4] = tested on: Streptococcus faecalis ATCC 10541; experiment: MIC, two-fold dilution method, Streptococcus faecalis ATCC 10541; conditions: 10^6 CFU per ml, 37° C., 18 to 20 hours; for MIC: Enterococcus faecalis, ATCC10541, Muller Hinton Broth, read-out: Antibacterial Activity (MIC); for Antibacterial Activity (MIC): Muller Hinton Broth
Outline: as §1

[5] = tested on: Pseudomonas aeurginosa NCTC 10490; experiment: MIC, two-fold dilution method, Pseudomonas aeurginosa NCTC 10490; conditions: 10^6 CFU per ml, 37° C., 18 to 20 hours; for MIC: NCTC10490, Muller Hinton Broth, read-out: Antibacterial Activity (MIC); for Antibacterial Activity (MIC): Muller Hinton Broth
Outline: as §1

[6] = tested on: Esherichia coli ATCC 25922; experiment: MIC, two-fold dilution method, Esherichia coli ATCC 25922; conditions: Muller Hinton Broth, 10^6 CFU per ml, 37° C., 18 to 20 hours; for MIC: read-out: Antibacterial Activity (MIC)
Outline: as §1

[7] = tested on: Klebsiella pneumoniae ATCC 10031; experiment: MIC, two-fold dilution method, Klebsiella pneumoniae ATCC 10031; conditions: 10^6 CFU per ml, 37° C., 18 to 20 hours; for MIC: ATCC10031, Muller Hinton Broth, read-out: Antibacterial Activity (MIC); for Antibacterial Activity (MIC): Muller Hinton Broth
Outline: as §1

Question: What does the source list for `C#CCO/N=C(\C(=O)NC1C(=O)N2C(C(=O)[O-])=C(CSc3cc[n+](CC=C)c4cc(N5CCN(C)CC5)c(F)cc34)CSC12)c1csc(N)n1` (centres unmarked) [Compound I-50, 7-[(Z)-2-(2-aminothiazol-4-yl)-2-(propargyloxyimino)acetamido]-3-[1-allyl-6-fluoro-7-(N-methylpiperazinyl)quinolinium-4-yl]thiomethyl-3-cephem-4-carboxylate]?
Answer: MIC [1]: 0.78 µg/mL (≈ 1.06 µM); MIC [2]: 3.13 µg/mL (≈ 4.25 µM); MIC [3]: 3.13 µg/mL (≈ 4.25 µM); MIC [4]: 1.56 µg/mL (≈ 2.12 µM); MIC [5]: 3.13 µg/mL (≈ 4.25 µM); MIC [6]: 3.13 µg/mL (≈ 4.25 µM); MIC [7]: 3.13 µg/mL (≈ 4.25 µM)

Question: Which results are given for `C#CCO/N=C(\C(=O)NC1C(=O)N2C(C(=O)[O-])=C(CSc3cc[n+](CC=C)c4cc(N5CCN(CC)CC5)c(F)cc34)CSC12)c1csc(N)n1` (centres unmarked) [Compound I-51, 7-[(Z)-2-(2-aminothiazol-4-yl)-2-(propargyloxyimino)acetamido]-3-[1-allyl-6-fluoro-7-(1-ethylpiperazinyl)quinolinium-4-yl]thiomethyl-3-cephem-4-carboxylate]?
Answer: MIC [1]: 0.78 µg/mL (≈ 1.04 µM); MIC [2]: 3.13 µg/mL (≈ 4.17 µM); MIC [3]: 1.56 µg/mL (≈ 2.08 µM); MIC [4]: 1.56 µg/mL (≈ 2.08 µM); MIC [5]: 1.56 µg/mL (≈ 2.08 µM); MIC [6]: 0.78 µg/mL (≈ 1.04 µM); MIC [7]: 0.78 µg/mL (≈ 1.04 µM)

Question: How did the “Antibacterial Activity (MIC)” value [1] turn out when `C#CCO/N=C(\C(=O)NC1C(=O)N2C(C(=O)[O-])=C(CSc3cc[n+](CC=C)c4cc(N5CCNCC5C)c(F)cc34)CS[C@H]12)c1csc(N)n1` (some centres unmarked) [Compound I-52, 7-[(Z)-2-(2-aminothiazol-4-yl)-2-(propargyloxyimino)acetamido]-3-[1-allyl-6-fluoro-7-(2-methylpiperazinyl)quinolinium-4-yl]thiomethyl-3-cephem-4-carboxylate] was run?
Answer: 0.39 µg/mL

Question: And the “Antibacterial Activity (MIC)” value [2]?
Answer: 3.13 µg/mL

Question: And the “Antibacterial Activity (MIC)” value [3]?
Answer: 1.56 µg/mL

Question: What about the “Antibacterial Activity (MIC)” value [4] of the same compound?
Answer: 0.78 µg/mL

Question: What about the “Antibacterial Activity (MIC)” value [5] of the same compound?
Answer: 1.56 µg/mL

Question: And the “Antibacterial Activity (MIC)” value [6]?
Answer: 0.78 µg/mL

Question: And the “Antibacterial Activity (MIC)” value [7]?
Answer: 1.56 µg/mL

Question: What does the source list for `CN1CCN(c2cc3c(cc2F)c(SCC2=C(C(=O)[O-])N4C(=O)C(NC(=O)/C(=N\OC(C)(C)C(=O)O)c5csc(N)n5)C4SC2)cc[n+]3C)CC1` (centres unmarked) [Compound I-54, 7-[(Z)-2-(2-aminothiazol-4-yl)-2-(2-carboxyprop-2-oxyimino)acetamido]-3-[1-methyl-6-fluoro-7-(N-methylpiperazinyl)quinolinium-4-yl]thiomethyl-3-cephem-4-carboxylate]?
Answer: MIC [1]: 0.78 µg/mL (≈ 1.03 µM); MIC [2]: 6.25 µg/mL (≈ 8.24 µM); MIC [3]: 3.13 µg/mL (≈ 4.12 µM); MIC [4]: 1.56 µg/mL (≈ 2.06 µM); MIC [5]: 3.13 µg/mL (≈ 4.12 µM); MIC [6]: 6.25 µg/mL (≈ 8.24 µM); MIC [7]: 3.13 µg/mL (≈ 4.12 µM)

Question: What does the source list for `CCN1CCN(c2cc3c(cc2F)c(SCC2=C(C(=O)[O-])N4C(=O)C(NC(=O)/C(=N\OC(C)(C)C(=O)O)c5csc(N)n5)C4SC2)cc[n+]3C)CC1` (centres unmarked) [Compound I-55, 7-[(Z)-2-(2-aminothiazol-4-yl)-2-(2-carboxyprop-2-oxyimino)acetamido]-3-[1-methyl-6-fluoro-7-(1-ethylpiperazinyl)quinolinium-4-yl]thiomethyl-3-cephem4-carboxylate]?
Answer: MIC [1]: 0.2 µg/mL (≈ 0.259 µM); MIC [2]: 1.56 µg/mL (≈ 2.02 µM); MIC [3]: 0.78 µg/mL (≈ 1.01 µM); MIC [4]: 0.2 µg/mL (≈ 0.259 µM); MIC [5]: 0.39 µg/mL (≈ 0.505 µM); MIC [6]: 0.78 µg/mL (≈ 1.01 µM); MIC [7]: 0.39 µg/mL (≈ 0.505 µM)

Question: `CC1CNCCN1c1cc2c(cc1F)c(SCC1=C(C(=O)[O-])N3C(=O)C(NC(=O)/C(=N\OC(C)(C)C(=O)O)c4csc(N)n4)[C@H]3SC1)cc[n+]2C` (some centres unmarked) [Compound I-56, 7-[(Z)-2-(2-aminothiazol-4-yl)-2-(2-carboxyprop-2-oxyimino)acetamido]-3-[1-methyl-6-fluoro-7-(2-methylpiperazinyl)quinolinium-4-yl]thiomethyl-3-cephem-4-carboxylate] was tested. Which “Antibacterial Activity (MIC)” value [1] did it give?
Answer: 0.2 µg/mL

Question: And the “Antibacterial Activity (MIC)” value [2]?
Answer: 0.78 µg/mL

Question: And the “Antibacterial Activity (MIC)” value [3]?
Answer: 0.78 µg/mL

Question: And the “Antibacterial Activity (MIC)” value [4]?
Answer: 0.39 µg/mL

Question: And the “Antibacterial Activity (MIC)” value [5]?
Answer: 0.78 µg/mL

Question: What about the “Antibacterial Activity (MIC)” value [6] of the same compound?
Answer: 0.39 µg/mL

Question: And the “Antibacterial Activity (MIC)” value [7]?
Answer: 0.39 µg/mL

Question: Which results are given for `CC(C)(O/N=C(\C(=O)NC1C(=O)N2C(C(=O)[O-])=C(CSc3cc[n+](C4CC4)c4cc(N5CCNCC5)c(F)cc34)CS[C@H]12)c1csc(N)n1)C(=O)O` (some centres unmarked) [Compound I-57, 7-[(Z)-2-(2-aminothiazol-4-yl)-2-(2-carboxyprop-2-oxyimino)acetamido]-3-(1-cyclopropyl-6-fluoro-7-piperazinylquinolinium-4-yl)thiomethyl-3-cephem-4-carboxylate]?
Answer: MIC [1]: 0.78 µg/mL (≈ 1.01 µM); MIC [2]: 6.25 µg/mL (≈ 8.11 µM); MIC [3]: 6.25 µg/mL (≈ 8.11 µM); MIC [4]: 1.56 µg/mL (≈ 2.02 µM); MIC [5]: 0.78 µg/mL (≈ 1.01 µM); MIC [6]: 0.78 µg/mL (≈ 1.01 µM); MIC [7]: 0.39 µg/mL (≈ 0.506 µM)

Question: Which MIC [1] does the source give for `CCN1CCN(c2cc3c(cc2F)c(SCC2=C(C(=O)[O-])N4C(=O)C(NC(=O)/C(=N\OC(C)(C)C(=O)O)c5csc(N)n5)C4SC2)cc[n+]3C2CC2)CC1` (centres unmarked) [Compound I-59, 7-[(Z)-2-(2-aminothiazol-4-yl)-2-(2-carboxyprop-2-oxyimino)acetamido]-3-[1-cyclopropyl-6-fluoro-7-(1-ethylpiperazinyl)quinolinium-4-yl]thiomethyl-3-cephem-4-carboxylate] here?
Answer: 0.39 µg/mL (≈ 0.488 µM)

Question: And the MIC [2]?
Answer: 0.78 µg/mL (≈ 0.976 µM)

Question: What about the MIC [3] of the same compound?
Answer: 1.56 µg/mL (≈ 1.95 µM)

Question: And the MIC [4]?
Answer: 0.78 µg/mL (≈ 0.976 µM)

Question: What about the MIC [5] of the same compound?
Answer: 0.78 µg/mL (≈ 0.976 µM)

Question: What about the MIC [6] of the same compound?
Answer: 0.78 µg/mL (≈ 0.976 µM)

Question: What about the MIC [7] of the same compound?
Answer: 0.39 µg/mL (≈ 0.488 µM)

Question: How did the MIC [1] turn out when `CCN1CCN(c2cc3c(cc2F)c(SCC2=C(C(=O)[O-])N4C(=O)C(NC(=O)/C(=N\OC(C)(C)C(=O)O)c5csc(N)n5)C4SC2)cc[n+]3CC)CC1` (centres unmarked) [Compound I-61, 7-[(Z)-2-(2-aminothiazol-4-yl)-2-(2-carboxyprop-2-oxyimino)acetamido]-3-[1-ethyl-6-fluoro-7-(1-ethylpiperazinyl)quinolinium-4-yl]thiomethyl-3-cephem-4-carboxylate] was run?
Answer: 3.13 µg/mL (≈ 3.98 µM)

Question: What about the MIC [2] of the same compound?
Answer: 1.56 µg/mL (≈ 1.98 µM)

Question: What about the MIC [3] of the same compound?
Answer: 1.56 µg/mL (≈ 1.98 µM)

Question: What about the MIC [4] of the same compound?
Answer: 0.39 µg/mL (≈ 0.496 µM)

Question: What about the MIC [5] of the same compound?
Answer: 1.56 µg/mL (≈ 1.98 µM)

Question: What about the MIC [6] of the same compound?
Answer: 3.13 µg/mL (≈ 3.98 µM)

Question: And the MIC [7]?
Answer: 3.13 µg/mL (≈ 3.98 µM)

Question: What does the source list for `C=CC[n+]1ccc(SCC2=C(C(=O)[O-])N3C(=O)C(NC(=O)/C(=N\OC(C)(C)C(=O)O)c4csc(N)n4)[C@H]3SC2)c2cc(F)c(N3CCNCC3C)cc21` (some centres unmarked) [Compound I-64, 7-[(Z)-2-(2-aminothiazol-4-yl)-2-(2-carboxyprop-2-oxyimino)acetamido]-3-[1-allyl-6-fluoro-7-(2-methylpiperazinyl)quinolinium-4-yl]thiomethyl-3-cephem-4-carboxylate]?
Answer: Antibacterial Activity (MIC) [1]: 1.56 µg/mL; Antibacterial Activity (MIC) [2]: 3.13 µg/mL; Antibacterial Activity (MIC) [3]: 1.56 µg/mL; Antibacterial Activity (MIC) [4]: 0.39 µg/mL; Antibacterial Activity (MIC) [5]: 3.13 µg/mL; Antibacterial Activity (MIC) [6]: 1.56 µg/mL; Antibacterial Activity (MIC) [7]: 1.56 µg/mL

Question: How did the “Antibacterial Activity (MIC)” value [1] turn out when `Cc1cn(-c2cc3c(cc2F)c(SCC2=C(C(=O)[O-])N4C(=O)C(NC(=O)/C(=N\OC(C)(C)C(=O)O)c5csc(N)n5)[C@H]4SC2)cc[n+]3C2CC2)cn1` (some centres unmarked) [Compound I-68, 7-[(Z)-2-(2-aminothiazol-4-yl)-2-(2-carboxyprop-2-oxyimino)acetamido]-3-[1-cyclopropyl-6-fluoro-7-(4-methylimidazolyl)quinolinium-4-yl]thiomethyl-3-cephem-4-carboxylate] was run?
Answer: 0.78 µg/mL

Question: What about the “Antibacterial Activity (MIC)” value [2] of the same compound?
Answer: 1.56 µg/mL

Question: What about the “Antibacterial Activity (MIC)” value [3] of the same compound?
Answer: 1.56 µg/mL

Question: And the “Antibacterial Activity (MIC)” value [4]?
Answer: 0.2 µg/mL

Question: What about the “Antibacterial Activity (MIC)” value [5] of the same compound?
Answer: 0.78 µg/mL

Question: And the “Antibacterial Activity (MIC)” value [6]?
Answer: 1.56 µg/mL

Question: What about the “Antibacterial Activity (MIC)” value [7] of the same compound?
Answer: 0.78 µg/mL
